Here are results for four molecules from PMC3914206.

Each structure is given as a SMILES string.

What all share (format): binding
For test [1], the target named is T1, panel of 442 kinases (Homo sapiens, UniProt P36888, N841I).
T1 construct: purchased KINOMEscan
T1 sequence (P36888 27-993 N841I): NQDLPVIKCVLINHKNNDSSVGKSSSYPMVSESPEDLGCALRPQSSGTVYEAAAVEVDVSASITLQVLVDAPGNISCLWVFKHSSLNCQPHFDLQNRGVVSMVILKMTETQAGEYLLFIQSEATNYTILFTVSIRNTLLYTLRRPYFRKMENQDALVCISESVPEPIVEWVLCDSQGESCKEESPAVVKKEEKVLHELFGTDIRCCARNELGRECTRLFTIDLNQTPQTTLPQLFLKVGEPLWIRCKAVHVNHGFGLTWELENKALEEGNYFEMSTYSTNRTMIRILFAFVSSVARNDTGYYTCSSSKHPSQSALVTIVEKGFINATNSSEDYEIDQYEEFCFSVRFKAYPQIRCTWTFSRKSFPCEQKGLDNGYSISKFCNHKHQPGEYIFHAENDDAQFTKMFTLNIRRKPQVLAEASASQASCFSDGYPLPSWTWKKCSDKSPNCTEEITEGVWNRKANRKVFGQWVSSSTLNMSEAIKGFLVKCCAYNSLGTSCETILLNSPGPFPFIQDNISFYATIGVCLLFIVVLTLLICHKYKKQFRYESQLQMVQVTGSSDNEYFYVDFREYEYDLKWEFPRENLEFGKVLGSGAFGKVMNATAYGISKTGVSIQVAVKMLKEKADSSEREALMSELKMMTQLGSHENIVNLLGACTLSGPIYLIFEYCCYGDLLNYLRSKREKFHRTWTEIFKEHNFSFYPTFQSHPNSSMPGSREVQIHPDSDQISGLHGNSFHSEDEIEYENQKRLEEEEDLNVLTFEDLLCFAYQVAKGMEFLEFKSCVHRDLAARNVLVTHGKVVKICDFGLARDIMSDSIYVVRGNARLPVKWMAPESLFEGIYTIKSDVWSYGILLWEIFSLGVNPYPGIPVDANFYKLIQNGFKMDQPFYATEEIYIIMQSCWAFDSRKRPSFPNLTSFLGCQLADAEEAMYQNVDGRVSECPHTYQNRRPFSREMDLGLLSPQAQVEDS
The settings on record: Compound Concentration 10 µM. From the text: (§1) We assessed the selectivity of members of this scaffold using the KINOMEscan methodology across a near comprehensive panel of 442 kinases [[18,27]].

The target of test [2] is T2, panel of 442 kinases (Homo sapiens, UniProt P48729).
T2 construct: purchased KINOMEscan
The settings on record: Compound Concentration 10 µM.
Excerpt: as §1

Test [3] deals with T3, panel of 442 kinases (Homo sapiens, UniProt Q9NY57).
T3 construct: purchased KINOMEscan
The settings on record: kinase YANK2; compound concentration 10 µM.
Excerpt: as §1

T3 sequence (Q9NY57 whole entry): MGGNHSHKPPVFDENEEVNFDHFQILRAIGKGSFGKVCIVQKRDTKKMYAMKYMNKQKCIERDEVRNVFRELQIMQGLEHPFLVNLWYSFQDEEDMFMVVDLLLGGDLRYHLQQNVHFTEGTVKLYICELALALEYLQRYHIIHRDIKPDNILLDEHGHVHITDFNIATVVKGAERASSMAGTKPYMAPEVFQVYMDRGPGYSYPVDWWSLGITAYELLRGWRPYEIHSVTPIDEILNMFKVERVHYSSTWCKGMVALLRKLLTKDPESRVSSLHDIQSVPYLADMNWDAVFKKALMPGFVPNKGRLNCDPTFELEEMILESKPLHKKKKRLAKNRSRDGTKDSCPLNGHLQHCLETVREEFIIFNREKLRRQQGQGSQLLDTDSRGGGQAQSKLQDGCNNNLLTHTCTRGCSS
T2 sequence (P48729 whole entry): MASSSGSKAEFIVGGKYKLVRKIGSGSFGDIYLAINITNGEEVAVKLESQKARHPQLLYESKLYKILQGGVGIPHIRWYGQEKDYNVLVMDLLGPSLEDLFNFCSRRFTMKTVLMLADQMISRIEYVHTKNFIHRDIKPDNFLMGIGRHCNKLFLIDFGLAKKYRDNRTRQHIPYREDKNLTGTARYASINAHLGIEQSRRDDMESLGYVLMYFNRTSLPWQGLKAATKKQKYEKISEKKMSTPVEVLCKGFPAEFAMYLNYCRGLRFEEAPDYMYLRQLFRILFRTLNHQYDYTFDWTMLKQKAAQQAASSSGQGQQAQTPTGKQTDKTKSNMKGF

Consider `COc1cc(C(=O)N2CCC(N3CCN(C)CC3)CC2)ccc1Nc1ncc2c(n1)N(C1CCCC1)c1ccccc1C(=O)N2C` [Compound 25, 11-cyclopentyl-2-((2-methoxy-4-(4-(4-methylpiperazin-1-yl)piperidine-1-carbonyl)phenyl)amino)-5-methyl-5H-benzo[e]pyrimido[5,4-b][1,4]diazepin-6(11H)-one], for which the “KINOMEscan: FLT3(N841I)” value at panel of 442 kinases [1] was 90. At panel of 442 kinases [2], the “KINOMEscan: CSNK1A1” value is listed as 100. Besides, at panel of 442 kinases [3], the “% Ctrl, YANK2” value is given as 100 % Ctrl.

`COc1cc(C(=O)N2CCC(N3CCN(C)CC3)CC2)ccc1Nc1ncc2c(n1)N1CCc3cccc(c31)C(=O)N2C` [Compound 24]: the “KINOMEscan: FLT3(N841I)” value at panel of 442 kinases [1] came to 55. The “% Ctrl, YANK2” value on panel of 442 kinases [3] was found to be 100 % Ctrl.

Take `COc1cc(C(=O)N2CCC(N3CCN(C)CC3)CC2)ccc1Nc1ncc2c(n1)N(C)c1ccccc1C(=O)N2C` [15 (LRRK2-IN-1)]: on panel of 442 kinases [1], the “KINOMEscan: FLT3(N841I)” value is recorded as 73. In addition, the “KINOMEscan: CSNK1A1” value at panel of 442 kinases [2] stood at 100. Also, the “% Ctrl, YANK2” value on panel of 442 kinases [3] is on record as 100 % Ctrl.

With `CCOc1cc(C(=O)N2CCC(N3CCN(C)CC3)CC2)ccc1Nc1ncc2c(n1)N(C1CCCC1)c1ccccc1C(=O)N2C` [Compound 26], the “KINOMEscan: FLT3(N841I)” value on panel of 442 kinases [1] amounted to 100. Besides, on panel of 442 kinases [2], the “KINOMEscan: CSNK1A1” value amounted to 100. Further, on panel of 442 kinases [3], the “% Ctrl, YANK2” value is on record as 100 % Ctrl.
